Test results: PMC2941613 (Indian Journal of Pharmacology, 2010)

Columns and labels:
[1] = system: ob/ob mice; settings: 10 mg/kg p.o.
Protocol: The DPP-IV inhibitors were administered to overnight fasted ob/ob mice for the above stated period, followed by oral glucose challenge (2 g/kg). Blood samples collected at 0, 15, 30, 60, and 120 min after glucose load were processed as described earlier and blood glucose concentrations measured using Biochemical AutoAnalyzer, Dimension AR (Dade Behring, USA). AUC0-120 min were calculated and the percent glucose excursion was estimated at different duration of treatment compared to vehicle.

[2] = Plasma levels of active GLP-1 and insulin (unpublished observations); format: in vivo

SMILES | Glucose lowering (glucose excursion, AUC0-120 min vs vehicle) at 8 h ([1]; OGTT 2 g/kg 8 h after dosing) | Reduction in AUCGlucose at 12 h ([1]; OGTT 2 g/kg 12 h after dosing) [%] | Augmentation of plasma active GLP-1 [2] | Augmentation of plasma insulin [2]
N[C@@H](CC(=O)N1CCn2c(nnc2C(F)(F)F)C1)Cc1cc(F)c(F)cc1F [sitagliptin] | ~ 35% | -23 | twofold | twofold
N#C[C@@H]1CCCN1C(=O)CNC12CC3CC(CC(O)(C3)C1)C2 [vildagliptin] |  |  | twofold | twofold
